Test results from patent US20080039425A1, “Methods and Compositions to Reduce Tissue Irritation in Parenteral Formulations” (ALLOS THERAPEUTICS, INC., priority 2004, published 2008).

System: rat tail vein
Assay: Rat-tail model, histopathological evaluation of tissue damage
Format: in vivo
Settings: for Histopathology Score: rat tail vein, relative to efaproxiral at 38 mg/mL
Description: In order to determine if the effects seen in the NMR correlated to an ability of the dextrins to protect tissue, an animal model was designed. […] A 38 mg/mL efaproxiral solution was administered as the positive control. A saline solution was used as the negative control.
Maltodextrin has the property of being a safer molecule than its cyclic relative.

SMILES | Histopathology Score (efaproxiral 20 mg/mL) [%] | Histopathology Score (efaproxiral 38 mg/mL (positive control)) [%] | Tissue damage in rat tail (in words) (38 mg/mL efaproxiral, compared with saline negative control)
Cc1cc(C)cc(NC(=O)Cc2ccc(OC(C)(C)C(=O)O)cc2)c1 [Efaproxiral, 2-[4-[2-[(3,5-dimethylphenyl)amino]-2-oxoethyl]phenoxy]-2-methyl-propionic acid] | 24 | 100 | 
Cc1cc(C)cc(NC(=O)Cc2ccc(OC(C)(C)C(=O)[O-])cc2)c1.[Na+] [efaproxiral-Na] |  |  | significant damage was observed beyond that associated with the administration
